Data as given in patent EP2402327B1, “Acetamide compounds as glucokinase activators, their process and medicinal applications” (Impetis Biosciences Ltd., priority 2010, dated 2012).

How the values were obtained:
[1] = cited from earlier work
[2] = target: T1, purified human recombinant GK (Homo sapiens, UniProt P35557); experiment: Glucokinase activity assay (coupled enzymatic assay with G6PD, NADH absorbance at 340 nm); assay type: biochemical; details: for EC50: EC50 of % change in S0.5 (% ΔS0.5) of glucokinase for glucose, sigmoidal fit; for Emax: Emax of % change in S0.5 (% ΔS0.5), vehicle control S0.5 = 0%, 0 mM glucose = 100%
T1 sequence (P35557 1-465): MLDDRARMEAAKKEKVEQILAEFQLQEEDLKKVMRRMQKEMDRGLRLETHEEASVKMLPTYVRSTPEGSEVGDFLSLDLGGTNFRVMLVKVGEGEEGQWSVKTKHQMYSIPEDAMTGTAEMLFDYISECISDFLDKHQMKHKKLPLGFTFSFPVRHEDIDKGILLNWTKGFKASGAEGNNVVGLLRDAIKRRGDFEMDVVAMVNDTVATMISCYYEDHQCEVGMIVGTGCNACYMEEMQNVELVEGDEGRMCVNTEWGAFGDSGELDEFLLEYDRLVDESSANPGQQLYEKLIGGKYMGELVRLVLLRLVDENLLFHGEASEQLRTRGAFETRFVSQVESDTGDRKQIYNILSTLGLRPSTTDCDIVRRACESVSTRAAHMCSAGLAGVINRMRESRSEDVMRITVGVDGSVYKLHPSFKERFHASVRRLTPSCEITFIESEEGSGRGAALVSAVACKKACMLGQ
Description: The glucokinase (GK) assay is a coupled enzymatic assay. GK catalyzes the first step of glycolysis, the conversion of glucose to glucose-6-phosphate (G6P) in the presence of ATP. G6P in turn is converted by glucose-6-phosphate dehydrogenase (G6PD) to 6-phosphogluconate, a process that requires NAD, resulting in NADH formation. Since the GK-catalyzed step is the rate-limiting step of this coupled enzymatic process, the rate of accumulation of 6-phosphogluconate and NADH is directly proportional to the rate of glucose phosphorylation by GK. The rate of the GK-catalyzed reaction can therefore be measured by monitoring the increase in NADH absorbance at 340 nm.
The assay is carried out according to the protocol outlined in Hariharan et al (1997), Diabetes 46: 11-16. Briefly, the test compounds are incubated in a reaction mix containing 25 mM HEPES (pH 7.2), 10 mM MgCl2, 100 mM KCl, 5 mM ATP, 2 mM DTT, 0.5 mM NAD, 1 U/ml Leuconostoc mesenteroides G6PD, 0.3 U/ml of purified human recombinant GK, and different concentrations of glucose. Enzymatic activity is calculated from the initial reaction velocity, measured from the change in NADH absorbance as a function of time.
Compounds described in formula (I), in concentration ranges from 1.0 nM to 500 µM, are tested in the purified human recombinant glucokinase assay described above.
A compound is considered to be a glucokinase activator if it, in its testable range of concentrations, yields a higher rate of glucose phosphorylation than in its absence at a particular glucose concentration, for example at 5 mM glucose.
Compounds of general formula (I) are tested in the in vitro GK enzymatic assay to monitor dose-dependent effect on glucokinase activation (in kinetic mode), as described above, at various glucose concentrations. The S0.5 of glucokinase for glucose at different concentration of each compound of interest is calculated from the following modified version of the Michaelis-Menten equation, V = Vmax [S]^n/(S0.5^n + [S]^n), where [S] is the glucose concentration and n is the Hill coefficient (taken as 1.7 to account for the sigmoidal kinetics of glucokinase with respect to glucose). The S0.5 is plotted against the log of the compound concentration. The change in the S0.5 of glucokinase (ΔS0.5) for glucose is calculated by subtracting the S0.5 at each concentration of the compound from the S0.5 in the vehicle control. The ΔS0.5 is then normalized to a percent scale, where the S0.5 in the vehicle control is set to 0% and 0 mM glucose is set to 100%. The % ΔS0.5 is then plotted against the log of the compound concentration. The EC50 and Emax of % change in S0.5 is obtained from the sigmoidal fit of the data. Detailed protocol has been described in our copending application no. 409/CHE/2007 which is incorporated herein by reference. Characterization data of some representative glucokinase activators of the present disclosure, which are illustrative but not limiting, are given in table I below.
The glucokinase activation data of some representative compounds of the present disclosure, which are illustrative but not to be construed as limiting the scope or spirit of the disclosure, are given in the table I below. Table I: EC50 and Emax (with respect to % ΔS0.5) of GK activators

primary rat hepatocytes = experiment: Measurement of glycogen synthesis in primary rat hepatocytes; assay type: cell-based, male Wistar rats; details: 10 µM compound, 10 mM glucose, 3 hours at 37°C, fold increase over DMSO control
Description: Primary hepatocytes are collected from male Wistar rats, and tested for viability by trypan blue exclusion. Primary hepatocytes cultures with viability greater than 95% are selected for the glycogen synthesis assay. The cells are seeded in a 48-well plate at a density of 200,000 cells/well in 250 µl Minimal Essential Medium (MEM) containing 10% foetal calf serum (FCS) and 1.7 µM insulin, and incubated for 4 hours at 37°C to allow attachment. The medium is replaced with fresh MEM containing 10% FCS, 1.7 µM insulin and 10 nM dexamethasone, and the cells are incubated for 16 hours at 37°C. The medium is then replaced with fresh MEM (serum-free) containing 2 µCi/ml of D-[U^14C]-Glucose along with 10 µM of the compound in a final DMSO concentration of 0.1%. The final glucose concentration is brought to 10 mM by the addition of D-Glucose (MEM already contains 5 mM glucose). The cells are incubated for 3 hours at 37°C. The cells are washed twice with 150 mM NaCl, lysed with 0.1 N NaOH, and the lysate precipitated with 8% w/v trichloroacetic acid (TCA) and 1 mg/well unlabeled glycogen as carrier. Cell debris is pelleted by centrifugation, the supernatant is removed, and the glycogen is precipitated with 63% ethanol. After another round of centrifugation, the supernatant is removed, and the pellet containing the precipitated glycogen is dried overnight. De novo synthesized glycogen is estimated in a scintillation counter (MicroBeta Trilux, Perkin Elmer), and expressed as fold increase over DMSO control.
The protocol for the glycogen assay is based on the method described in "Biochem J. 1990 Feb 15; 266(1): 91-102" with a few minor modifications. The protocol for isolation of primary rat hepatocytes is based on the method described in "Methods in Enzymology, Vol. III. pp 34-50. Ed. by S.P. Colowick and N.O. Kaplan. New York, Academic Press, 1957" with a few minor modifications.
Compounds described in formula (I), in concentration ranges from 1.0 nM to 500 µM, are tested in glycogen synthesis assay described above. […]

| Compound | hypoglycemia ([1]; animal efficacy models, Kamata, K. et al (2004) Structure 12: 429-438) | EC50 [2] [nM] | Emax [2] [%] | hypoglycemic potential ([1]; at higher dose, Fyfe, M. C. T. (2007) Diabetologia, 50: 1277-1287) | Fold increase in glycogen synthesis at 10 µM (primary rat hepatocytes) [fold] |
| --- | --- | --- | --- | --- | --- |
| Ro-28-1675 | cause hypoglycemia |  |  |  |  |
| CCOc1ccc2nc(NC(=O)C(OC3CCOCC3)c3ccc(S(=O)(=O)C4CC4)cc3)sc2n1 (single isomer, unassigned; (+)) [Example D10A, (+)2-(4-Cyclopropanesulfonyl-phenyl)-N -(5-ethoxy-thiazolo[5,4-b]pyridin-2-yl)-2-(tetrahydro-pyran-4-yloxy)-a Cetamide] |  | 54 | 92 |  |  |
| O=C(O)c1ccc(Oc2cnc(NC(=O)C(OC3CCOCC3)c3ccc(S(=O)(=O)C4CC4)cc3)s2)c(F)c1 (stereo not shown) [Example B34, 4-{2-[2-(4-Cyclopropanesulfonyl-phenyl)-2-(tetrahydropyran-4-yloxy)-acetylamino]-thiazol-5-yloxy}-3-fluorobenzoic acid] |  | 45 | 91 |  |  |
| COc1ccc2nc(NC(=O)C(OC3CCOCC3)c3ccc(S(=O)(=O)C4CC4)cc3)sc2n1 (single isomer, unassigned; (+)) [Example D9A, (+)2-(4-Cyclopropanesulfonyl-phenyl)-N -(5-methoxy-thiazolo[5,4-b]pyridin-2-yl)-2-(tetrahydro-pyran-4-yloxy)-Acetamide] |  | 68 | 95 |  |  |
| O=C(Nc1nc2cccnc2s1)C(Oc1ccc(F)cc1F)c1ccc(S(=O)(=O)N2CCCCC2)cc1 (single isomer, unassigned; (-)) [Example D1A, (-)2-(2,4-Difluoro-phenoxy)-2-[4-(piperidine-1-sulfonyl)-phenyl]-N-thiazo lo[5,4-b]pyridin-2-yl-acetamide] |  | 84 | 85 |  |  |
| O=C(Nc1ncc(F)s1)[C@H](CC1CCOCC1)c1ccc(S(=O)(=O)C2CC2)cc1 [PSN-GK1] |  |  |  | hypoglycemic potential is seen |  |
| O=C(Nc1ncc(Oc2ccc(CO)cc2)s1)C(OC1CCOCC1)c1ccc(S(=O)(=O)C2CC2)cc1 (stereo not shown) [Example F1, 2-(4-Cyclopropanesulfonyl-phenyl)-N-[5-(4-hydroxymethyl-phenoxy)-thiazol-2-yl]-2-(tetrahydro-pyran-4-yloxy)-acetamide] |  | 100 | 91 |  |  |
| O=C(O)c1ccc(Oc2cnc(NC(=O)C(Oc3ccc(F)cc3F)c3ccc(S(=O)(=O)C4CC4)cc3)s2)cc1 (single isomer, unassigned; (+)) [Example D11A, (+)4-{2-[2-(4-Cyclopropanesulfonylphenyl)-2-(2,4-difluoro-phenoxy)-acetylamino]-thiazol-5-yloxy}-benzoic acid] |  | 34 | 95 |  | 15.5 |
| O=C(O)c1ccc(Oc2cnc(NC(=O)C(OC3CCOCC3)c3ccc(S(=O)(=O)C4CC4)cc3)s2)cc1 (single isomer, unassigned; (+)) [Example D4A, (+) 4-{2-[2-(4-Cyclopropanesulfonylphenyl)-2-(tetrahydro-pyran-4-yloxy)-acetylamino]-thiazol-5-yloxy}-benzoic acid] |  | 69 | 92 |  |  |
| O=C(O)c1ccc(Oc2cnc(NC(=O)C(O[C@@H]3CCOC3)c3ccc(S(=O)(=O)C4CC4)cc3)s2)cc1 (single isomer, unassigned) [Example D6A] |  | 22 | 88 |  | 11 |
| NC(=O)c1cccc(Oc2cnc(NC(=O)C(Oc3ccc(F)cc3F)c3ccc(S(=O)(=O)C4CC4)cc3)s2)c1 (stereo not shown) [Example C6, 3-{2-[2-(4-Cyclopropanesulfonyl-phenyl)-2-(2,4-difluorophenoxy)-acetylamino]-thiazol-5-yloxy}-benzamide] |  |  |  |  | 13.5 |
| O=C(O)c1ccc2nc(NC(=O)C(OC3CCOCC3)c3ccc(S(=O)(=O)C4CC4)cc3)sc2c1 (stereo not shown) [Example B41, 2-[2-(4-Cyclopropanesulfonyl-phenyl)-2-(tetrahydro-pyran-4-yloxy)-acetylamino]-benzothiazole-6-carboxylic acid] |  | 100 | 75 |  |  |
| O=C(Nc1ncc(Oc2ccc(-c3nn[nH]n3)cc2)s1)C(OC1CCOCC1)c1ccc(S(=O)(=O)C2CC2)cc1 (stereo not shown) [Example E1, 2-(4-Cyclopropanesulfonyl-phenyl)-2-(tetrahydro-pyran-4-yloxy)-N-{5-[4-(2H-tetrazol-5-yl)-phenoxy]-thiazol-2-yl}-acetamide] |  | 99 | 88 |  |  |
